Measured values published in patent publication US8343916B2, “Use of heat-shock protein 27 for cardiovascular disease prevention and treatment” (Ottawa Heart Institute Research Corporation, priority 2007, dated 2013).
“Also recorded” adds a separate entry of the source.

Tests used:
Human macrophages (U937) = assay: HSP27 secretion from human macrophages (Western blot of conditioned media); type: cell-based
Description: (§1) Cell lysates were obtained using a RIPA buffer [1% NP-40, 0.5% sodium deoxycholate, 0.1% SDS, Complete™ inhibitor in PBS]. Cells were washed twice with PBS, lysed in RIPA buffer, collected using a cell scraper, and placed on ice for 45 minutes. Cell debris was collected by centrifugation at 15,000×g for 20 minutes, and the supernatant containing the cellular protein was isolated. Protein was quantified using Bradford reagent (Sigma). For western blotting, 50 μg of whole cell protein was loaded onto a 10% SDS-PAGE gel and separated at 120V using gel electrophoresis. Protein was then transferred to a PVDF membrane (BioRad, Hercules, Calif.) for 2 hours at 60V. Membranes were then subjected to western blotting using the following antibodies: anti-HSP27 (Santa Cruz, 1:200); anti-SR-A (Chemicon, 1:2000); anti-IL-1β (R&D, 1:500); anti-IL-10 (Santa Cruz, 1:200).
Human macrophages (U937) were plated in replicates at a density of […] per well and treated with estradiol or acLDL. […] Macrophages were subjected to increasing concentrations of acLDL (1 to 100 μg/mL) for 24 hours.

[1] = test system: aortic smooth muscle cells; assay: HSP27 secretion from aortic smooth muscle cells (Western blot); type: cell-based, human; details: DPN 1 nM, 24 h
Source text: (§2) HSP27 was detected in the extracellular space by Western blot.

aortic endothelial cells = assay: HSP27 secretion from aortic endothelial cells (Western blot); type: cell-based, human; details: DPN 1 nM, 24 h
Source text: as §2

[2] = target: T1, scavenger receptor A (SR-A) (Mus musculus, UniProt P30204); assay: Immunolabeling of recombinant HSP27 binding to macrophage surface and SR-A
T1 construct: detection of a ˜50 kDa band corresponding to SR-A in these cells; endogenous in cells; host or cells: J774 mouse macrophages (untransfected); mouse peritoneal macrophages
T1 sequence (P30204 1-458): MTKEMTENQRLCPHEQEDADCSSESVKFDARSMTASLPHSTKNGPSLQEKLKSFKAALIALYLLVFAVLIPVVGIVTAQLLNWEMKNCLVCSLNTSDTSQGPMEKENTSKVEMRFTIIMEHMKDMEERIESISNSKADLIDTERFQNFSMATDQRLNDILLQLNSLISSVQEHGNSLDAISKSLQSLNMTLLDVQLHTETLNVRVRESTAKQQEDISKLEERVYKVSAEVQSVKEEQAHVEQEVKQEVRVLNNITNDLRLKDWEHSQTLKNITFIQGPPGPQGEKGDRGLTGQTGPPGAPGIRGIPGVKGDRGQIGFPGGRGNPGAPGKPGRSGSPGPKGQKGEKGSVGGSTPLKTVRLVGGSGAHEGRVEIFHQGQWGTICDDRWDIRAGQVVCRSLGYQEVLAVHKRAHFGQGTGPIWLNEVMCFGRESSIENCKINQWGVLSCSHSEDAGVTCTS
Description: J774 cells treated with recombinant HSP27 (5 μg/ml) with or without fucoidan (10 μg/ml) were fixed with BD Cytofix (BD Biosciences, Mississauga, ON) and blocked with 2% bovine serum albumin (BSA) for 2 hours. Antibodies against human HSP27 (Chemicon, 1:200) and scavenger receptor A (Serotec, 1:200) were incubated overnight at 4° C. Visualization of substrates was done using secondary antibodies conjugated to fluoroscein (for HSP27) and Texas Red (for SR-A). Negative controls included incubation with control IgG and secondary antibody alone.
Cells were grown on cover slips, and transfected as described above. Cells were fixed with BD Cytofix as directed by the manufacturer and mounted with Dako Fluorescent mounting media (Dako Cytomation, Mississauga, ON). Coverslips were visualized with an Olympus FluoView FV1000 confocal microscope (Olympus America Inc, Center Valley, Pa.) at 100× magnification, using sequential scanning to reduce any potential non-specific excitation of the different fluorophores.
Cells were also treated with an SR-A specific competitive ligand (fucoidan, 10 ug/ml) before administration of HSP27 (bottom panel). Co-localization is seen as a yellow colour. […] Macrophages from SR-A null mice were harvested and incubated with recombinant HSP27 (5 μg/ml) for 2 hours at 4° C. Immunolabeling was performed as described above.

[3] = test system: macrophages (acLDL uptake via the scavenger receptor A); assay: Fluorescent acLDL uptake by macrophages; type: cell-based, mouse
Description: Cells were treated with Dil-acLDL (5 μg/ml) for 4 hours at 37° C., in the presence of recombinant HSP27 (5 μg/ml) and/or fucoidan (10 μg/ml). Cells were harvested by gentle cell scraping in 100 μl of PBS. Each sample was analyzed for acLDL fluorescence on a BMG PolarStar plate reader (excitation: 510 nm, emission: 570 nm) and normalized to total cell number using the Vi-Cell cell counter (Beckman Coulter, Mississauga, ON).
Foam cell formation is a hallmark process in the development of atherosclerosis, and prevention of lipid uptake by macrophages may serve to reduce overall lesion development and inflammation. If HSP27 can bind the SR-A in vitro, and there is an atheroprotective effect of HSP27 in vivo, HSP27 may prevent the SR-A from taking up atherogenic lipids such as acLDL and becoming foam cells. In support of this, mouse macrophages were cultured in vitro in the presence of fluorescently labeled acLDL for […], and acLDL uptake was measured using a fluorometer and normalized to total cell number.
Extracellular HSP27 inhibits uptake of acLDL by macrophages via the scavenger receptor A. Fluorescently labeled acLDL (5 μg/ml) was given to macrophages in the presence (right columns) or absence (left columns) of recombinant HSP27 (5 μg/ml). […] Fluorescent uptake was measured and normalized to total cell number.

Insulin = assay: rHSP27 chaperone activity assay (DTT-induced aggregation of insulin); type: biochemical; details: Insulin 40 μM; Insulin:rHSP27 10:1 and 100:1; 43° C.; absorbance at 320 nm
Description: The rHSP27 was produced in E. coli. The rHSP27 so produced is >90% endotoxin free (endotoxin concentration assessed using Limulus Amebocyte Lysate gel-blot Assay: 2-3 EU/mg protein). Based on in vitro chaperone assay experiments, the protein is “functional”. […] The DTT-induced aggregation of insulin was performed in the absence and presence of rHSP27 in PBS solution, pH 7.4, to measure the chaperone activity of rHSP27. Insulin (40 μM) with different concentration of rHSP27 (Insulin: rHSP27=10:1 and 100:1 and no rHSP27) in PBS were incubated for 10 min at 43° C., respectively. Aggregation was monitored by measure the absorbance at 320 nm in Bioteck Synergy Mx spectrophotometer for 30 min at 43° C. after add DTT to a final concentration of 20 mM.

[4] = rHSP27 pharmacokinetic experiments (subcutaneous injection); type: in vivo, mouse; details: 100 μg subcutaneously, male and female ApoE−/− mice; similar to female ApoE−/− HSP27o/e mice
Description: These were performed by injecting 100 μg of purified rHSP27 or control BSA (in PBS) subcutaneously into male and female ApoE^−/− mice and then checked serum rHSP27 levels at various times post-injection (n=3-6).

ApoE−/− mice = assay: Short term (3 week) rHSP27 treatment of ApoE−/− mice on high fat diet; type: in vivo, mouse
Description: ApoE^−/− mice were maintained on a high fat diet and randomized to rHSP27 (100 ug) vs. phosphate buffered saline (PBS) twice a day for 3 weeks.
FIG. 22A depicts the experimental design: ApoE^−/− mice were maintained on a high fat diet and randomized to rHSP27 (100 ug) vs. phosphate buffered saline (PBS) twice a day for 3 weeks. The mice were then euthanized and blood samples were collected. After perfusing with phosphate-buffered saline (PBS) followed by 4% paraformaldehyde (PFA) in PBS via the left ventricle, the heart and aorta were removed and immersed in 4% PFA/PBS at 4° C. overnight. Serum lipoprotein separation was performed by fast-performance liquid chromatography (FPLC) analysis using a Superose 6 column (Pharmacia Biotech Inc., Piscataway, N.J., USA) on an HPLC system model 805 MANOMETRIC MODULE (GILSON). An enzymatic assay kit (Wako Pure Chemical Industries, Ltd, Osaka, Japan) was employed to determine cholesterol level. The content of the aortic atherosclerotic lesions were assessed using quantitative histochemical and immunohistochemical methods. Dark red oil red O staining identifying lipidoid deposits, while Haematoxylin and eosin (H&E) stained denote tissue histopathology.
Hematoxylin and eosin (H&E) stained tissue sections were also labeled for nuclear staining (blue fluorescent Hoechst 33258), apoptosis (green fluorescent TUNEL labeling) and macrophages accumulation (green fluorescent Mac-2).

[5] = test system: macrophages (IL-1β, IL-10 release); assay: Cytokine release from acLDL-treated macrophages (western blot of conditioned media); type: cell-based, mouse; details: recombinant HSP27 5 μg/ml, acLDL 5 ug/ml, 30 minutes and 4 hours
Description: as §1
Fluorescently labeled acLDL (5 ug/ml) was given to macrophages in the presence or absence of recombinant HSP27 (5 μg/ml). Conditioned media was collected after 30 minutes and 4 hours and subjected to western blotting for IL-1β (FIG. 7A) and IL-10 (FIG. 7B). Addition of HSP27 caused a decrease in the acLDL-induced secretion of IL-1β into the extracellular space.

Q: With `N#CC(Cc1ccc(O)cc1)c1ccc(O)cc1` (stereo not shown) [DPN] as the compound, how does the “HSP27 secretion upon stimulation of ERβ” value (Human macrophages (U937); DPN 1 nM, 4 h or 24 h) read?
A: enhanced

Q: What about the “HSP27 secretion from smooth muscle cells” value [1] of the same compound?
A: not smooth muscle cells

Q: What about the “HSP27 secretion from endothelial cells” value (aortic endothelial cells) of the same compound?
A: increase in HSP27 secretion

Q: With `C[C@]12CC[C@@H]3c4ccc(O)cc4CC[C@H]3[C@@H]1CC[C@@H]2O` [E2, 17β-estradiol] as the compound, how does the “intracellular HSP27 protein levels” value (Human macrophages (U937)) read?
A: increased slightly

Q: And the “colocalization of HSP27 with lysosome marker LAMP1” value (Human macrophages (U937); 100 nmol/L E2 overnight)?
A: displayed colocalization of HSP27 (red) and LAMP1

Q: And the “HSP27 release into the media” value (Human macrophages (U937); E2 for 24 hours, compared to controls)?
A: dose-dependent increase

Q: What about the “time of maximum HSP27 secretion” value (Human macrophages (U937); estrogen-induced release over time) of the same compound?
A: 24 h

Q: Which “HSP27 binding to SR-A in the presence of competitor” value ([2]; fucoidan 10 ug/ml before HSP27) does the source give for fucoidan [reference compound] here?
A: reduced

Q: And the “inhibition of acLDL uptake by macrophages” value ([3]; fucoidan 10 ug/ml before acLDL or HSP27)?
A: capable of inhibiting this process

Q: With “rHSP27: recombinant human heat shock protein 27 produced in E. coli, purified, injected subcutaneously” as the compound, how does the “chaperone activity (in vitro aggregation and refolding assays)” value (Insulin) read?
A: functional

Q: What about the “serum rHSP27 level with twice daily injection schedule” value [4] of the same compound?
A: effective to maintain a serum level of rHSP27

Q: And the body weight (ApoE−/− mice; 100 ug BID, 3 weeks)?
A: did not change

Q: And the “cholesterol levels contained by VLDL and IDL/LDL (FPLC)” value (ApoE−/− mice; 100 ug BID, 3 weeks)?
A: reduces cholesterol levels contained by VLDL and IDL/LDL

Q: What about the “number of WBC (peripheral blood smears)” value (ApoE−/− mice; 100 ug BID, 3 weeks) of the same compound?
A: did not change

Q: What about the “reduction in abundance of aortic sinus lesion macrophages” value (ApoE−/− mice; 100 ug BID, 3 weeks, Mac-2) of the same compound?
A: approximately 45%

Q: What about the “reduction in abundance of apoptotic macrophages in aortic sinus lesion” value (ApoE−/− mice; 100 ug BID, 3 weeks, TUNEL) of the same compound?
A: ~80%

Q: And the “reduction in aortic sinus lesion area” value (ApoE−/− mice; 100 ug BID, 3 weeks, p=0.002)?
A: 26%

Q: And the “reduction in aortic wall (en face) lesion area” value (ApoE−/− mice; 100 ug BID, 3 weeks, p=0.01)?
A: 27%

Q: What about the liver cholesterol content (ApoE−/− mice; 100 ug BID, after the 3rd week) of the same compound?
A: without a rise

Q: And the “serum total cholesterol levels lower by” value (ApoE−/− mice; 100 ug BID, after the 3rd week, vs PBS)?
A: 41%

Q: And the “adverse events when injected in mice” value (ApoE−/− mice; mouse, in vivo)?
A: did not cause adverse events

Q: And the “atherogenesis in ApoE−/− mice” value (ApoE−/− mice; mouse, in vivo)?
A: efficacious in reducing atherogenesis

Q: With “recombinant HSP27: Recombinant HSP27 was purchased from Stressgen; heat shock protein 27 added extracellularly to macrophages” as the compound, how does the “acLDL-induced secretion of IL-1β” value [5] read?
A: decrease

Q: And the “release of IL-10” value [5]?
A: increased

Q: And the “acLDL-induced secretion of IL-1β” value ([5]; listed as HSP27)?
A: considerable decrease; also recorded: reduced

Q: And the “HSP27 binding to the cell surface of macrophages from SR-A null mice” value ([2]; 5 μg/ml, 2 hours at 4° C.)?
A: completely abolished

Q: What about the “binding to surface of macrophages and co-localization with SR-A” value ([2]; 5 μg/ml, 2 hours at 4° C., confocal microscopy) of the same compound?
A: capable of binding the surface of macrophages, and co-localizes with SR-A

Q: What about the “reduction in acLDL uptake by macrophages” value ([3]; recombinant HSP27 5 μg/ml, fluorescently labeled acLDL 5 μg/ml, normalized to total cell number) of the same compound?
A: 41%
